Results as given in patent US20090030024A1, “THIAZOLES AS FUNGICIDES” (priority 2005, published 2009).
Marks after values point to notes of the source that are not given here.

Test: logP determination by retention times (calibration with alkan-2-ones)
Details: not given

Question: Which chromatographic logP does the source give for `Cc1nc(C(F)(F)F)c(-c2ccnc(Nc3ccccc3)n2)s1` [Example 312, 4-[2-methyl-4-(trifluoromethyl)-1,3-thiazol-5-yl]-N-phenylpyrimidine-2-amine] here?
Answer: The chromatographic logP was 3.45.

Question: Which chromatographic logP does the source give for `COc1cc(Nc2nccc(-c3sc(SC)nc3C)n2)cc(OC)c1OC` [Example 316, 4-[4-methyl-2-(methylthio)-1,3-thiazol-5-yl]-N-(3,4,5-trimethoxyphenyl)pyrimidine-2-amine] here?
Answer: Its chromatographic logP is 2.76.

Question: With `CSc1nc(C)c(-c2ccnc(Nc3ccc(C(F)(F)F)cc3)n2)s1` [Example 317, 4-[4-methyl-2-(methylthio)-1,3-thiazol-5-yl]-N-[4-(trifluoromethyl)phenyl]pyrimidine-2-amine] as the compound, how does the chromatographic logP read?
Answer: The chromatographic logP was 4.37.

Question: With `CSc1nc(C)c(-c2ccnc(Nc3ccccc3)n2)s1` [Example 318, 4-[4-methyl-2-(methylthio)-1,3-thiazol-5-yl]-N-phenylpyrimidine-2-amine] as the compound, how does the chromatographic logP read?
Answer: The chromatographic logP was 3.34.

Question: For `Cc1nc(N)sc1-c1ccnc(Nc2ccc(O)cc2)n1` [Example 323, 4-{[4-(2-amino-4-methyl-1,3-thiazol-5-yl)pyrimidin-2-yl]amino}phenol], which chromatographic logP is on record?
Answer: Its chromatographic logP is 0.93.

Question: For `CCc1nc(C)c(-c2ccnc(Nc3ccc(C(=O)O)cc3)n2)s1` [Example 325, 4-{[4-(2-ethyl-4-methyl-1,3-thiazol-5-yl)pyrimidin-2-yl]amino}benzoic acid], which chromatographic logP is on record?
Answer: Its chromatographic logP is 2.16.

Question: For `COCC(C)Nc1nc(C)c(-c2ccnc(Nc3cc(OC)c(OC)c(OC)c3)n2)s1` (stereo not shown) [Example 332, 4-{2-[(2-methoxy-1-methylethyl)amino]-4-methyl-1,3-thiazol-5-yl}-N-(3,4,5-trimethoxyphenyl)pyrimidine-2-amine], which chromatographic logP is on record?
Answer: Its chromatographic logP is 1.85.

Question: Which chromatographic logP does the source give for `COCC(C)Nc1nc(C)c(-c2ccnc(Nc3cccc(OC)c3)n2)s1` (stereo not shown) [Example 333, 4-{2-[(2-methoxy-1-methylethyl)amino]-4-methyl-1,3-thiazol-5-yl}-N-(3-methoxyphenyl)pyrimidine-2-amine] here?
Answer: The chromatographic logP was 2.03.

Question: Which chromatographic logP does the source give for `COCC(C)Nc1nc(C)c(-c2ccnc(Nc3cccc([N+](=O)[O-])c3)n2)s1` (stereo not shown) [Example 334, 4-{2-[(2-methoxy-1-methylethyl)amino]-4-methyl-1,3-thiazol-5-yl}-N-(3-nitrophenyl)pyrimidine-2-amine] here?
Answer: The chromatographic logP was 2.2.

Question: With `Cc1nc(N(C)C2CC2)sc1-c1ccnc(Nc2ccccc2)n1` [Example 341, 4-{2-[cyclopropyl(methyl)amino]-4-methyl-1,3-thiazol-5-yl}-N-phenylpyrimidine-2-amine] as the compound, how does the chromatographic logP read?
Answer: Its chromatographic logP is 2.43.

Question: Which chromatographic logP does the source give for `COc1cc(Nc2nccc(-c3sc(NCC4CCCO4)nc3C)n2)cc(OC)c1OC` (stereo not shown) [Example 354, 4-{4-methyl-2-[(tetrahydrofuran-2-ylmethyl)amino]-1,3-thiazol-5-yl}-N-(3,4,5-trimethoxyphenyl)pyrimidine-2-amine] here?
Answer: The chromatographic logP was 1.8.

Question: Which chromatographic logP does the source give for `Cc1nc(NCC2CCCO2)sc1-c1ccnc(Nc2cccc([N+](=O)[O-])c2)n1` (stereo not shown) [Example 355, 4-{4-methyl-2-[(tetrahydrofuran-2-ylmethyl)amino]-1,3-thiazol-5-yl}-N-(3-nitrophenyl)pyrimidine-2-amine] here?
Answer: The chromatographic logP was 2.13.

Question: With `Cc1nc(NCC2CCCO2)sc1-c1ccnc(Nc2ccccc2)n1` (stereo not shown) [Example 356, 4-{4-methyl-2-[(tetrahydrofuran-2-ylmethyl)amino]-1,3-thiazol-5-yl}-N-phenylpyrimidine-2-amine] as the compound, how does the chromatographic logP read?
Answer: The chromatographic logP was 1.87.

Question: With `Cc1nc(N(C)c2ccccc2)sc1-c1ccnc(Nc2ccccc2)n1` [Example 357, 4-{4-methyl-2-[methyl(phenyl)amino]-1,3-thiazol-5-yl}-N-phenylpyrimidine-2-amine] as the compound, how does the chromatographic logP read?
Answer: The chromatographic logP was 3.21.

Question: For `Cc1nc(C(=O)N(C)C)sc1-c1ccnc(Nc2ccccc2)n1` [Example 373, 5-(2-anilinopyrimidin-4-yl)-N,N,4-trimethyl-1,3-thiazole-2-carboxamide], which chromatographic logP is on record?
Answer: Its chromatographic logP is 2.72.

Question: Which chromatographic logP does the source give for `CCOC(=O)c1cccc(Nc2nccc(-c3sc(C4CC4)nc3C)n2)c1` [Example 374, ethyl-3-{[4-(2-cyclopropyl-4-methyl-1,3-thiazol-5-yl)pyrimidin-2-yl]amino}benzoate] here?
Answer: The chromatographic logP was 3.56.

Question: Which chromatographic logP does the source give for `COC(=O)Nc1ccc(Nc2nccc(-c3sc(C)nc3C)n2)cc1` [Example 380, methyl-(4-{[4-(2,4-dimethyl-1,3-thiazol-5-yl)pyrimidin-2-yl]amino}phenyl)carbamate] here?
Answer: The chromatographic logP was 1.84.

Question: With `Cc1nc(C)c(-c2ccnc(Nc3ccc4c(c3)OCCO4)n2)s1` [Example 387, N-(2,3-dihydro-1,4-benzodioxin-6-yl)-4-(2,4-dimethyl-1,3-thiazol-5-yl)pyrimidine-2-amine] as the compound, how does the chromatographic logP read?
Answer: The chromatographic logP was 2.34.

Question: For `CCc1nc(C)c(-c2ccnc(Nc3ccc4c(c3)OCCO4)n2)s1` [Example 388, N-(2,3-dihydro-1,4-benzodioxin-6-yl)-4-(2-ethyl-4-methyl-1,3-thiazol-5-yl)pyrimidine-2-amine], which chromatographic logP is on record?
Answer: The chromatographic logP was 2.7.

Question: For `Cc1nc(C(C)C)sc1-c1ccnc(Nc2ccc3c(c2)OCCO3)n1` [Example 389, N-(2,3-dihydro-1,4-benzodioxin-6-yl)-4-(2-isopropyl-4-methyl-1,3-thiazol-5-yl)pyrimidine-2-amine], which chromatographic logP is on record?
Answer: Its chromatographic logP is 3.16.

Question: For `COCc1nc(C)c(-c2ccnc(Nc3ccc4c(c3)OCCO4)n2)s1` [Example 390, N-(2,3-dihydro-1,4-benzodioxin-6-yl)-4-[2-(methoxymethyl)-4-methyl-1,3-thiazol-5-yl]pyrimidine-2-amine], which chromatographic logP is on record?
Answer: Its chromatographic logP is 2.49.

Question: Which chromatographic logP does the source give for `COc1ccc(OC)c(Nc2nccc(-c3sc(C)nc3C)n2)c1` [Example 391, N-(2,5-dimethoxyphenyl)-4-(2,4-dimethyl-1,3-thiazol-5-yl)pyrimidine-2-amine] here?
Answer: Its chromatographic logP is 3.03.

Question: Which chromatographic logP does the source give for `Cc1nc(C(C)C)sc1-c1ccnc(Nc2ccc(F)c(F)c2)n1` [Example 401, N-(3,4-difluorophenyl)-4-(2-isopropyl-4-methyl-1,3-thiazol-5-yl)pyrimidine-2-amine] here?
Answer: Its chromatographic logP is 3.95.

Question: For `COc1ccc(Nc2nccc(-c3sc(C)nc3C)n2)cc1OC` [Example 403, N-(3,4-dimethoxyphenyl)-4-(2,4-dimethyl-1,3-thiazol-5-yl)pyrimidine-2-amine], which chromatographic logP is on record?
Answer: Its chromatographic logP is 2.16.

Question: With `COCc1nc(C)c(-c2ccnc(Nc3ccc(OC)c(OC)c3)n2)s1` [Example 404, N-(3,4-dimethoxyphenyl)-4-[2-(methoxymethyl)-4-methyl-1,3-thiazol-5-yl]pyrimidine-2-amine] as the compound, how does the chromatographic logP read?
Answer: Its chromatographic logP is 2.23.

Question: Which chromatographic logP does the source give for `COc1ccc(Nc2nccc(-c3sc(SC)nc3C)n2)cc1OC` [Example 405, N-(3,4-dimethoxyphenyl)-4-[4-methyl-2-(methylthio)-1,3-thiazol-5-yl]pyrimidine-2-amine] here?
Answer: Its chromatographic logP is 2.78.

Question: Which chromatographic logP does the source give for `COc1cc(Nc2nccc(-c3sc(C)nc3C)n2)cc(OC)c1` [Example 406, N-(3,5-dimethoxyphenyl)-4-(2,4-dimethyl-1,3-thiazol-5-yl)pyrimidine-2-amine] here?
Answer: The chromatographic logP was 2.64.

Same assay, conditions: HPLC, reversed-phase C 18, EEC Directive 79/831 Annex V.A8; method *: 40° C., 0.1% aqueous formic acid and acetonitrile, linear gradient 10% to 95% acetonitrile

Question: For `CNc1nc(C)c(-c2ccnc(Nc3cc(OC)c(OC)c(OC)c3)n2)s1` [Example 313, 4-[4-methyl-2-(methylamine)-1,3-thiazol-5-yl]-N-(3,4,5-trimethoxyphenyl)pyrimidine-2-amine], which logP is on record?
Answer: Its logP is 1.53*.

Question: For `CNc1nc(C)c(-c2ccnc(Nc3ccccc3)n2)s1` [Example 315, 4-[4-methyl-2-(methylamine)-1,3-thiazol-5-yl]-N-phenylpyrimidine-2-amine], which logP is on record?
Answer: The logP was 1.61*.

Same assay, conditions: logP, * HPLC reversed-phase C18, 40° C., mobile phase 0.1% aqueous formic acid and acetonitrile, linear gradient 10% to 95% acetonitrile

Question: Which chromatographic logP does the source give for `COc1cc(Nc2nccc(-c3sc(SC)nc3C)n2)cc(OC)c1` [Example 407, N-(3,5-dimethoxyphenyl)-4-[4-methyl-2-(methylthio)-1,3-thiazol-5-yl]pyrimidine-2-amine] here?
Answer: The chromatographic logP was 3.39.

Question: With `CC(=O)NCc1cccc(Nc2nccc(-c3sc(C4CC4)nc3C)n2)c1` [Example 414, N-(3-{[4-(2-cyclopropyl-4-methyl-1,3-thiazol-5-yl)pyrimidin-2-yl]amino}benzyl)acetamide] as the compound, how does the chromatographic logP read?
Answer: The chromatographic logP was 1.96.

Question: With `CCc1nc(C)c(-c2ccnc(Nc3cccc(NC(C)=O)c3)n2)s1` [Example 415, N-(3-{[4-(2-ethyl-4-methyl-1,3-thiazol-5-yl)pyrimidin-2-yl]amino}phenyl)acetamide] as the compound, how does the chromatographic logP read?
Answer: The chromatographic logP was 2.05.

Question: Which chromatographic logP does the source give for `COc1ccc(Nc2nccc(-c3sc(C)nc3C)n2)cc1Cl` [Example 416, N-(3-chloro-4-methoxyphenyl)-4-(2,4-dimethyl-1,3-thiazol-5-yl)pyrimidine-2-amine] here?
Answer: The chromatographic logP was 2.88.

Question: For `COCc1nc(C)c(-c2ccnc(Nc3ccc(OC)c(Cl)c3)n2)s1` [Example 419, N-(3-chloro-4-methoxyphenyl)-4-[2-(methoxymethyl)-4-methyl-1,3-thiazol-5-yl]pyrimidine-2-amine], which chromatographic logP is on record?
Answer: The chromatographic logP was 2.91.

Question: For `Cc1nc(C2CC2)sc1-c1ccnc(Nc2cccc(Cl)c2)n1` [Example 422, N-(3-chlorophenyl)-4-(2-cyclopropyl-4-methyl-1,3-thiazol-5-yl)pyrimidine-2-amine], which chromatographic logP is on record?
Answer: Its chromatographic logP is 3.94.

Question: With `CCc1nc(C)c(-c2ccnc(Nc3cccc(Cl)c3)n2)s1` [Example 424, N-(3-chlorophenyl)-4-(2-ethyl-4-methyl-1,3-thiazol-5-yl)pyrimidine-2-amine] as the compound, how does the chromatographic logP read?
Answer: Its chromatographic logP is 3.72.

Question: For `Cc1nc(C(C)C)sc1-c1ccnc(Nc2cccc(Cl)c2)n1` [Example 425, N-(3-chlorophenyl)-4-(2-isopropyl-4-methyl-1,3-thiazol-5-yl)pyrimidine-2-amine], which chromatographic logP is on record?
Answer: Its chromatographic logP is 4.25.

Question: With `COCc1nc(C)c(-c2ccnc(Nc3cccc(Cl)c3)n2)s1` [Example 432, N-(3-chlorophenyl)-4-[2-(methoxymethyl)-4-methyl-1,3-thiazol-5-yl]pyrimidine-2-amine] as the compound, how does the chromatographic logP read?
Answer: Its chromatographic logP is 3.24.

Question: With `Cc1nc(C(F)(F)F)c(-c2ccnc(Nc3cccc(Cl)c3)n2)s1` [Example 433, N-(3-chlorophenyl)-4-[2-methyl-4-(trifluoromethyl)-1,3-thiazol-5-yl]pyrimidine-2-amine] as the compound, how does the chromatographic logP read?
Answer: The chromatographic logP was 4.03.

Same assay, conditions: logP, ** HPLC reversed-phase C18, 43° C., mobile phase 0.1% aqueous phosphoric acid and acetonitrile, linear gradient 10% to 95% acetonitrile

Question: Which chromatographic logP does the source give for `Cc1nc(C)c(-c2ccnc(Nc3cccc(Cl)c3)n2)s1` [Example 421, N-(3-chlorophenyl)-4-(2,4-dimethyl-1,3-thiazol-5-yl)pyrimidine-2-amine] here?
Answer: Its chromatographic logP is 3.11.
